Measured values: article PMC2705520, “Inactivation and Unfolding of the Hyperthermophilic Inorganic Pyrophosphatase from Thermus thermophilus by Sodium Dodecyl Sulfate” (2009)
Counter-ions that a name gives are not always drawn.

T1: Inorganic pyrophosphatase (T-PPase) (Thermus thermophilus, UniProt Q72H95)
T1 construct: gene ppa
T1 sequence (Q72H95 1-175): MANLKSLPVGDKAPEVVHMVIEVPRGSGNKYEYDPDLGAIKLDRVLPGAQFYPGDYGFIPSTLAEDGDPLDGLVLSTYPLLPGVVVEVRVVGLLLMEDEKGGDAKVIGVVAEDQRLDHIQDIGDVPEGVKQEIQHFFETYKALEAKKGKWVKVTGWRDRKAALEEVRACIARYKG

B1: Inorganic pyrophosphatase (T-PPase) (Thermus thermophilus HB27) (protein)
chain: T1 sequence (Q72H95 1-175)

How the values were obtained:
[1] = biological target: T1, Inorganic pyrophosphatase (T-PPase); assay: PPase activity assay (phosphomolybdate); Lineweaver-Burk and secondary replots, mixed type reversible inhibition; type: biochemical
Text: PPase activity assay (phosphomolybdate); Lineweaver-Burk and secondary replots, mixed type reversible inhibition on Inorganic pyrophosphatase (T-PPase) | Then the apparent inhibition constant could be calculated from Equations.

[2] = substrate: O=P(O)(O)OP(=O)(O)O; assay: purified protein; details: Mg2+ active site cavity formed by conserved polar residues, with Mg2+ ions

| Molecule | Ki [1] [mM] | Km [2] [µM] |
| --- | --- | --- |
| CCCCCCCCCCCCOS(=O)(=O)O [Sodium dodecyl sulfate] | 3.4 | – |
| B1 | – | 420 ± 40 |
